Experimental data as given in patent publication US9765018B2, “IDO inhibitors” (BRISTOL-MYERS SQUIBB COMPANY, priority 2013, dated 2017).

Legend:
[1] = molecular target: T1, IDO (Homo sapiens (Human), UniProt P14902); assay: Kynurenine assay in IFN-γ-stimulated Hela cells; assay type: cell-based; details: 20 h, read-out: Hela Kyurenine (IC50)
Outline: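 Kynurenine in supernatant is read at 490 nm after Ehrlich reagent (10 min RT), following TCA stop and 30 min at 50° C hydrolysis. Before that, Hela cells in phenol red-free RPMI/10% FBS were co-treated 20 h at 37° C with 100 ng/mL IFN-γ and compound (30 μM top, 3-fold series to 1.5 nM).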

[2] = molecular target: Human IDO1 (Homo sapiens (Human), UniProt P14902); assay: IDO Kynurenine Assay with Human IDO1/HEK293 Cells; assay type: cell-based; details: HEK293 cells with human IDO1; read-out: HEK human IDO-1 (IC50)
Chain of Human IDO1 (P14902 whole entry): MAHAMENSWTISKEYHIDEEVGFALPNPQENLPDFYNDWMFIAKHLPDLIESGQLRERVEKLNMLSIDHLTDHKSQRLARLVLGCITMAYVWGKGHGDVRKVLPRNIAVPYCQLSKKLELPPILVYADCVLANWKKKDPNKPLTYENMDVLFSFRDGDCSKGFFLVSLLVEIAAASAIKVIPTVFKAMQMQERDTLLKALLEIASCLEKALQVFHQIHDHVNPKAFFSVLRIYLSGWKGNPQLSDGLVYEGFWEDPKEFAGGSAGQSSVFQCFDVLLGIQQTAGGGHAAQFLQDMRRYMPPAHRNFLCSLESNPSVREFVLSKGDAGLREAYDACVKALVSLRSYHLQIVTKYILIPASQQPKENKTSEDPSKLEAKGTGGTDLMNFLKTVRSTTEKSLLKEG
Outline: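 HEK293 cells expressing human IDO1 (10,000/well, phenol-red-free RPMI, 10% FBS) exposed to compound for 20 h at 37 °C. Reaction stopped with 0.2% TCA and heated 30 min at 50 °C; kynurenine in supernatant detected with Ehrlich reagent by absorbance at 490 nm.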

[3] = molecular target: T1, IDO; assay: LLE_IDO_ABS_DR (IDO assay, method not described)

T1 sequence (P14902 whole entry): as above

Compound | IC50 [1] [nM] | IC50 [2] [nM] | IC50 [3] [nM]
COc1ccc(-c2ccc(Oc3cccc(C)c3C)c(NC(=O)Nc3ccc(C)cc3)c2)cc1C(=O)O [Example 123, 4′-(2,3-dimethylphenoxy)-4-methoxy-3′-(3-p-tolylureido)biphenyl-3-carboxylic acid] | 160 | 680 | 730
COc1ccc(-c2ccc(Oc3ccccc3C(C)C)c(NC(=O)Nc3ccc(C)cc3)c2)cc1C(=O)O [Example 63, 4′-(2-isopropylphenoxy)-4-methoxy-3′-(3-p-tolylureido)biphenyl-3-carboxylic acid] | 390 | 1600 | 1610

The next molecules have a lower IC50 [1] than those just listed; values first:

IC50 [1] [nM] | IC50 [2] [nM] | IC50 [3] [nM] | Compound
60 | 560 | 70 | Cc1ccc(NC(=O)Nc2cc(-c3ccccc3C(=O)O)ccc2Oc2ccccc2C(C)(C)C)cc1 [Example 2, 4′-(2-tert-Butylphenoxy)-3′-(3-p-tolylureido)biphenyl-2-carboxylic acid]
50 | 450 | 290 | COc1ccc(-c2ccc(Oc3cccc4c3CCCC4)c(NC(=O)Nc3ccccc3F)c2)cc1C(=O)O [Example 152, 3′-(3-(2-fluorophenyl)ureido)-4-methoxy-4′-(5,6,7,8-tetrahydronaphthalen-1-yloxy)biphenyl-3-carboxylic acid]
40 | 920 | 530 | COc1ccc(-c2ccc(Oc3cccc4c3CCCC4)c(NC(=O)Nc3ccc(C)c(C)c3)c2)cc1C(=O)O [Example 153, 3′-(3-(3,4-dimethylphenyl)ureido)-4-methoxy-4′-(5,6,7,8-tetrahydronaphthalen-1-yloxy)biphenyl-3-carboxylic acid]
